What all share (assay): relative viability (nuclei count vs DMSO), 5 days (fraction); higher = more cells survive
Compound in the assay “AT9283 + Pictilisib”: O=C(Nc1c[nH]nc1-c1nc2ccc(CN3CCOCC3)cc2[nH]1)NC1CC1 [AT9283] + CS(=O)(=O)N1CCN(Cc2cc3nc(-c4cccc5[nH]ncc45)nc(N4CCOCC4)c3s2)CC1 [Pictilisib] (partner 1 µM)
In a few lines:
(§1)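 Lung cancer cell lines, seeded in 1536-well plates, were treated the following day by pin tool with a single drug or with five library-drug doses (not always all listed) in √10 steps on top of a fixed anchor-drug dose. Cells were fixed and nuclei stained in one step after 5 days, and nuclei were counted. Relative viability is the nuclei count for treated wells divided by that for vehicle wells, reported as medians of duplicate plates.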

Compound in the assay “AT9283 + Crizotinib”: O=C(Nc1c[nH]nc1-c1nc2ccc(CN3CCOCC3)cc2[nH]1)NC1CC1 [AT9283] + C[C@@H](Oc1cc(-c2cnn(C3CCNCC3)c2)cnc1N)c1c(Cl)ccc(F)c1Cl [Crizotinib] (partner 1 µM)
An outline of the steps:
as §1

Compound in the assay “AT9283 + Tozasertib”: O=C(Nc1c[nH]nc1-c1nc2ccc(CN3CCOCC3)cc2[nH]1)NC1CC1 [AT9283] + Cc1cc(Nc2cc(N3CCN(C)CC3)nc(Sc3ccc(NC(=O)C4CC4)cc3)n2)n[nH]1 [Tozasertib] (partner 0.1 µM)
In a few lines: as §1

Compound in the assay “Erlotinib + Navitoclax”: C#Cc1cccc(Nc2ncnc3cc(OCCOC)c(OCCOC)cc23)c1 [Erlotinib] + CC1(C)CCC(c2ccc(Cl)cc2)=C(CN2CCN(c3ccc(C(=O)NS(=O)(=O)c4ccc(N[C@H](CCN5CCOCC5)CSc5ccccc5)c(S(=O)(=O)C(F)(F)F)c4)cc3)CC2)C1 [Navitoclax] (partner 0.5 µM)
In a few lines:
as §1

Compound in the assay “Erlotinib + Olaparib”: C#Cc1cccc(Nc2ncnc3cc(OCCOC)c(OCCOC)cc23)c1 [Erlotinib] + O=C(c1cc(Cc2n[nH]c(=O)c3ccccc23)ccc1F)N1CCN(C(=O)C2CC2)CC1 [Olaparib] (partner 8 µM)
An outline of the steps:
as §1

In the supplement of paper PMC10307832 one finds relative viability data, which are given here for 1 cell line.

Consider NCI-H441, for which the relative viability in the assay with AT9283 + Pictilisib (first compound 0.003 µM) turned out to be 0.359; in the assay with AT9283 + Pictilisib (first compound 0.03 µM) it was 0.469; with AT9283 + Pictilisib (first compound 0.09487 µM), 0.138; in the assay with AT9283 + Pictilisib (first compound 0.3 µM) it was 0.186; in the assay with AT9283 + Crizotinib (first compound 0.003 µM), 0.614; with AT9283 + Crizotinib (first compound 0.03 µM), 0.635. For the same cell line, the relative viability with AT9283 + Crizotinib (first compound 0.09487 µM) was 0.35; with AT9283 + Crizotinib (first compound 0.3 µM), 0.234; in the assay with AT9283 + Tozasertib (first compound 0.003 µM), 0.707; with AT9283 + Tozasertib (first compound 0.03 µM), 0.715; with AT9283 + Tozasertib (first compound 0.09487 µM) it was 0.361; with AT9283 + Tozasertib (first compound 0.3 µM), 0.31. Besides, the relative viability is 1.03 with Erlotinib + Navitoclax (first compound 0.02 µM); 0.805 in the assay with Erlotinib + Navitoclax (first compound 0.2 µM); 0.555 in the assay with Erlotinib + Navitoclax (first compound 0.6325 µM); 0.302 in the assay with Erlotinib + Navitoclax (first compound 2 µM); 0.626 with Erlotinib + Olaparib (first compound 0.02 µM); 0.54 with Erlotinib + Olaparib (first compound 0.2 µM). Moreover, the relative viability with Erlotinib + Olaparib (first compound 0.6325 µM) came to 0.534; with Erlotinib + Olaparib (first compound 2 µM) it was 0.495.
